Results on 22 compounds are retold here after patent US11021481B2, “Substituted isoindolin-1-ones and 2,3-dihydro-1h-pyrrolo[3,4-c]pyridin-1-ones as HPK1 antagonists” (Nimbus Saturn, Inc., priority 2019, dated 2021).

The target in the test is HPK1 (Homo sapiens (Human), UniProt Q92918). Description: HPK1 biochemical enzyme assay (microfluidic mobility shift assay). The conditions noted are these: 1.5 nM HPK1, ATP 1 mM final, 30 min preincubation, 60 min at RT, Caliper EZ Reader; read-out: HPK1 1000UMATP caliper IC50. Put shortly: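 Mobility shift readout of HPK1 activity after a 60 min RT reaction with 1 mM ATP, 1 μM substrate and 5 mM MgCl2. Enzyme/substrate mix was first exposed to compounds for 30 min, using ten-point curves topping at 3 μM final.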
HPK1, sequence (Q92918 whole entry): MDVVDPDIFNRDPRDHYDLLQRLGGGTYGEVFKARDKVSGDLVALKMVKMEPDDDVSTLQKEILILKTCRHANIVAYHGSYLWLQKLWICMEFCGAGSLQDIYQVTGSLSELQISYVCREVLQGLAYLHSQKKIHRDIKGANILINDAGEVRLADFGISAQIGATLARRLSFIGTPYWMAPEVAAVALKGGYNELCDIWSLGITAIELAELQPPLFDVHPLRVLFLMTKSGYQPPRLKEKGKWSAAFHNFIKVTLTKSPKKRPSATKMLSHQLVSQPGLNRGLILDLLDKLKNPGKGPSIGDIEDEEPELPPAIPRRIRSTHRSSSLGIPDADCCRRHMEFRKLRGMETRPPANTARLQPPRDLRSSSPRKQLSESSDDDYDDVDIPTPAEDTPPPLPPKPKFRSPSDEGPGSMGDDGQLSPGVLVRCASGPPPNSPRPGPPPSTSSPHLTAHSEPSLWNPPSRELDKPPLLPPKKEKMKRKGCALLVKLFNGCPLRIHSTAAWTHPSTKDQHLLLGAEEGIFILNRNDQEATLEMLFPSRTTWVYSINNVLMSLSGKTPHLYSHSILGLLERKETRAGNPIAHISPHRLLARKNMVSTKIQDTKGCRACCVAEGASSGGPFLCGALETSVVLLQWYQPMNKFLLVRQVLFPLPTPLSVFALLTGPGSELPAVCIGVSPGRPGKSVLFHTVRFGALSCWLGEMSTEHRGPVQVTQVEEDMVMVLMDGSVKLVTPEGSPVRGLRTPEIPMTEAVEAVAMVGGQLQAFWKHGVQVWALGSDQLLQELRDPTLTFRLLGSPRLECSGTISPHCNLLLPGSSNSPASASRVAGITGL
Regarding “7-[[6- [(dimethylamino)- methyl]-5- tetrahydrofuran- 3-yl-2- pyridyl]amino]- 4-(7- methylimidazo [1,2-a]pyrimidin-3- yl)isoindolin- 1-one [I-846]”, the IC50 was less than 100 nM.

As for `CN1CCN(c2ccc(Nc3cnc(-c4cnc5n4CCC5)c4c3C(=O)NC4)nc2)CC1` [I-268, 4-(6,7-dihydro-5H-pyrrolo[1,2-a]imidazol-3-yl)-7-((5-(4-methylpiperazin-1-yl)pyridin-2-yl)amino)-2.3-dihydro-1H-pyrrolo[3,4-c]pyridin-1-one], the IC50 lay within 100 to 1000 nM. As to `Cn1ccc2c(-c3ccc(Nc4ccc(N5CC[C@H](O)C5)cn4)c4c3CNC4=O)ccnc21` [I-285, (S)-7-((5-(3-hydroxy-pyrrolidin-1-yl)pyridin-2-yl)amino)-4-(1-methyl-1H-pyrrolo[2,3-b]pyridin-4-yl)isoindolin-1-one], the IC50 is less than 100 nM. For `Cc1cnc2[nH]cc(-c3ccc(Nc4ccc(N5CCN(C)CC5)cn4)c4c3CNC4=O)c2c1` [I-30, 7-[[5-(4-methylpiperazin-1-yl)-2-pyridyl]amino]-4-(5-methyl-1H-pyrrolo[2,3-b]pyridin-3-yl)-isoindolin-1-one] the value was 100 to 1000 nM; for `O=C1NCc2c(-c3cnc4cc(Cl)ccn34)ccc(Nc3ccc(N4CCC(O)CC4)cn3)c21` [I-187, 4-(7-chloroimidazo [1,2-a]pyridin-3-yl)-7-[[5-(4-hydroxy-1-piperidyl)-2-pyridyl]amino] isoindolin-1-one], less than 100 nM. Next, `CN1CCC(c2ccc(Nc3ccc(-c4ccnc5c4ccn5C)c4c3C(=O)NC4)nc2)CC1=O` (stereo not shown) [I-271, 4-(1-methyl-1H-pyrrolo[2,3-b]pyridin-4-yl)-7-((5-(1-methyl-2-oxopiperidin-4-yl)pyridin-2-yl)amino)isoin-dolin-1-one]: less than 100 nM. For `Cc1ccc2c(-c3ncc(Nc4ccc(N5CCN(C)CC5)cn4)c4c3CNC4=O)c(C)[nH]c2n1` [I-17, 4-(2,6-dimethyl-1H-pyrrolo[2,3-b]pyridin-3-yl)-7-[[5-(4-methylpiperazin-1-yl)-2-pyridyl]amino]-2,3-dihydropyrrolo [3,4-c]pyridin-1-one] the value was greater than 1000 nM; for `CN(C)Cc1nc(Nc2cnc(-c3ccnc4[nH]ccc34)c3c2C(=O)NC3)ccc1[C@@H]1CCOC1` [I-766, (S)-7-((6-((dimethylamino)-methyl)-5-(tetrahydrofuran-3-yl)pyridin-2-yl)amino)-4-(1H-pyrrolo[2,3-b]pyridin-4-yl)-2,3-dihydro-1H-pyrrolo[3,4-c]pyridin-1-one], less than 100 nM. Take `CN1CCC[C@@H](c2cccc(Nc3cnc(-c4ccnc5c4ccn5C)c4c3C(=O)NC4)n2)C1` [I-420, (R]-4-(1-methyl-1H-pyrrolo[2,3-b]pyridin-4-yl)-7-((6-(1-methylpiperidin-3-yl)pyridin-2-yl)amino)-2.3-dihydro-1H-pyrrolo[3,4-c]pyridin-1-one]: the IC50 is less than 100 nM. For `CN(C[C@@H]1CN(c2ccc(Nc3ccc(-c4cnc5cc(F)ccn45)c4c3C(=O)NC4)nc2)CCO1)C1CC1` [I-494, 7-[[5-[(2R)-2-[[cyclopropyl (methyl)amino]methyl]morph-olin-4-yl]-2-pyridyl]amino]-4-(7-fluoroimidazo [1,2-a]pyridin-yl)isoindolin-1-one] the value was less than 100 nM; for `Cc1cccn2c(-c3ccc(Nc4ccc(N5CCC(O)CC5)cn4)c4c3CNC4=O)cnc12` [I-135, 7-[[5-(4-hydroxy-1-piperidyl)-2-pyridyl]amino]-4-(8-methylimidazo [1,2-a]pyridin-3-yl)isoindolin-1-one], less than 100 nM. For `CN(C)[C@H]1CCCc2ccc(Nc3ccc(-c4cnc5cc(F)ccn45)c4c3C(=O)NC4)nc21` [I-841, (S)-7-((8-(dimethylam-ino)-5,6.7,8-tetrahydroquin-olin-2-yl)amino)-4-(7-fluoroimidazo [1,2-a]pyridin-3-yl)isoindolin-1-one] the value was 100 to 1000 nM. With `Cn1ccc2c(-c3ncc(Nc4ccc(N5C[C@@H]6C[C@H]5CO6)cn4)c4c3CNC4=O)ccnc21` [I-309, 7-((5-((1S,4S)-2-oxa-5-azabicyclo[2.2.1]heptan-5-yl)pyridin-2-yl)amino)-4-(1-methyl-1H-pyrrolo[2,3-b]pyridin-4-yl)-2,3-dihydro-1H-pyrrolo[3,4-c]pyridin-1-one], the IC50 is less than 100 nM. `Cc1cc(-c2ccc(Nc3ccc(N4CCN(C)CC4)cn3)c3c2CNC3=O)c2cc[nH]c2n1` [I-77, 7-[[5-(4-methylpiperazin-1-yl)-2-pyridyl]amino]-4-(6-methyl-1H-pyrrolo[2,3-b]pyridin-4-yl)isoindolin-1-one]: the IC50 was in the range of 100 to 1000 nM.

Turning to `CN(C)Cc1cccc(Nc2ccc(-c3cnc4cc(F)ccn34)c3c2C(=O)NC3)n1` [I-699, 7-((6-((dimethylamino)methyl)pyri-din-2-yl)amino)-4-(7-fluoroimidazo [1,2-a]pyridin-3-yl)isoindolin-1-one], the IC50 is less than 100 nM. For `Cc1cnc2c(-c3ccc(Nc4ccc(N5CCC(O)CC5)cn4)c4c3CNC4=O)cccn12` [I-215, 7-[[5-(4-hydroxy-1-piperidyl)-2-pyridyl]-amino]-4-(3-methylimidazo [1,2-a]pyridin-8-yl)isoindolin-1-one] the value was 100 to 1000 nM.

With `CN(C)Cc1nc(Nc2ccc(-c3cnc4cc(F)ccn34)c3c2C(=O)NC3)ccc1OC1CCOCC1` [I-553, 7-[[6-[(dimethylamino)-methyl]-5-tetrahydropy-ran-4-yloxy-2-pyridyl]amino]-4-(7-fluoroimidazo [1,2-a]pyridin-3-yl)isoindolin-1-one], the IC50 was less than 100 nM.

Turning to `Cn1nc(Nc2ccc(-c3cnc4cc(F)ccn34)c3c2C(=O)NC3)cc1C1(O)CCOCC1` [I-566, 4-(7-fluoroimidazo [1,2-a]pyridin-3-yl)-7-((5-(4-hydroxytetrah-ydro-2H-pyran-4-yl)-1-methyl-1H-pyrazol-3-yl)amino)isoin-dolin-1-one], the IC50 is less than 100 nM. With `CO[C@@H]1CCN(Cc2nc(Nc3ccc(-c4cnc5cc(F)ccn45)c4c3C(=O)NC4)ccc2[C@H]2CCOC2)C1` [I-780, 4-(7-fluoroimidazo [1,2-a]pyridin-3-yl)-7((6-(((R)-3-methoxypyrrol-idin-1-yl)methyl)-5-((R)-tetraliydrofiiran-3-yl)pyridin-2-yl)amino)isoin-dolin-1-one], the IC50 is less than 100 nM. Next, `COCC1CN(c2ccc(Nc3ccc(-c4cnc5cc(F)ccn45)c4c3C(=O)NC4)nc2CN(C)C)CCO1` (stereo in doubt) [I-712, (S)-7-((6-((dimethylamino)-methyl)-5-(2-(methoxymeth-yl)morpho-lino)pyridin-2-yl)amino)-4-(7-fluoroimidazo [1,2-a]pyridin-3-yl)isoindolin-1-one]: less than 100 nM; `CN1CC(Oc2nc(Nc3ccc(-c4cnc5cc(F)ccn45)c4c3C(=O)NC4)ccc2[C@H]2CCOC2)C1` [I-815]: less than 100 nM.

Regarding `Cn1ccc2c(-c3c(F)cc(Nc4ccc(N5CCC(O)CC5)cn4)c4c3CNC4=O)ccnc21` [I-197, 5-fluoro-7-[[5-(4-hydroxy-1-piperidyl)-2-pyridyl]amino]-4-(1-methylpyrrolo[2,3-b]pyridin-4-yl)isoindolin-1-one], the IC50 was less than 100 nM.
